Consider ten molecules from ChEMBL document CHEMBL4017480, “Discovery and optimization of selective FGFR4 inhibitors via scaffold hopping” (Bioorg Med Chem Lett, 2017).

One may read the IC50 as the concentration needed to halve the response being measured.

Series [1] has as its target Fibroblast growth factor receptor 4 (Homo sapiens, UniProt P22455). Nature of the series: Inhibition of recombinant human N-terminal His-tagged FGFR4 cytoplasmic domain […] expressed in baculovirus expression system using tyr 04 peptide as substrate measured within 90 mins by Z-LYTE assay.
Series [2] concerns the target Fibroblast growth factor receptor 1 (Homo sapiens, UniProt P11362). The experiment in a line: Inhibition of recombinant human His-tagged FGFR1 cytoplasmic domain (308 to 731 residues) expressed in baculovirus expression system using tyr 04 as substrate measured within 60 mins by Z-LYTE assay.
A short description of series [3]: Stability in mouse plasma assessed as compound remaining at 2 uM measured after 2 hrs by LC-MS/MS analysis. Particulars: read-out: Stability. In kind it is ADME, cell-free.
Series [4] in a line: Stability in human plasma assessed as compound remaining at 2 uM measured after 2 hrs by LC-MS/MS analysis. In kind it is ADME, cell-free. Particulars: read-out: Stability.
Series [5] in a line: Intrinsic clearance in human liver microsomes at 1 uM measured after 60 mins in presence of NADPH by LC-MS/MS analysis. In kind it is ADME, microsome. To be noted: read-out: CLH. (In general: Microsomes from liver hold many membrane-bound enzymes, among them those of drug oxidation.)
The nature of series [6]: Intrinsic clearance in mouse liver microsomes at 1 uM measured after 60 mins in presence of NADPH by LC-MS/MS analysis. Particulars: read-out: CLH. The format is ADME, microsome.

Some results are limits rather than exact numbers.

Chain of Fibroblast growth factor receptor 1 (P11362 whole entry, the tested form may be a part): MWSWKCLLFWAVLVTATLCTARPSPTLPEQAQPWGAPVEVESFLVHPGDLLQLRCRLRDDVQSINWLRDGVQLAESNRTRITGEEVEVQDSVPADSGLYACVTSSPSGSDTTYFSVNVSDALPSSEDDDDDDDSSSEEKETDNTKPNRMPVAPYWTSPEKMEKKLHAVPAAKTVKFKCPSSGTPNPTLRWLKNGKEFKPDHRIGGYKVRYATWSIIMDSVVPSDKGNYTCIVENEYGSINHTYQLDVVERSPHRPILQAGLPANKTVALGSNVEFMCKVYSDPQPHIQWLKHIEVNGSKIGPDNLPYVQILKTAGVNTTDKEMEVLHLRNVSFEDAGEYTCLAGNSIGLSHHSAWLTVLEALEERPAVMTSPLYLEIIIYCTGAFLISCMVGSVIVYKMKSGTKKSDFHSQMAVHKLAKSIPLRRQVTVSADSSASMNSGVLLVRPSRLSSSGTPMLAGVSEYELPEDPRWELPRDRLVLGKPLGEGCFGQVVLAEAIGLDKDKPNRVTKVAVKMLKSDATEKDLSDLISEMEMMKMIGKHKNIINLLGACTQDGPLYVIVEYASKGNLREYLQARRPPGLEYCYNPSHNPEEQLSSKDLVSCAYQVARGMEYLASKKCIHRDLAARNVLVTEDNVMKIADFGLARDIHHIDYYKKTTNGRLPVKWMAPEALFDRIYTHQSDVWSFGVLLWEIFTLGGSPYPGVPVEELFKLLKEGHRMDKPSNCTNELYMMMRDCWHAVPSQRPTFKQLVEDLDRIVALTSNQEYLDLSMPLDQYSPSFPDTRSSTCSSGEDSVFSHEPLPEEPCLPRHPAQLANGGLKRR
Chain of Fibroblast growth factor receptor 4 (P22455 whole entry, the tested form may be a part): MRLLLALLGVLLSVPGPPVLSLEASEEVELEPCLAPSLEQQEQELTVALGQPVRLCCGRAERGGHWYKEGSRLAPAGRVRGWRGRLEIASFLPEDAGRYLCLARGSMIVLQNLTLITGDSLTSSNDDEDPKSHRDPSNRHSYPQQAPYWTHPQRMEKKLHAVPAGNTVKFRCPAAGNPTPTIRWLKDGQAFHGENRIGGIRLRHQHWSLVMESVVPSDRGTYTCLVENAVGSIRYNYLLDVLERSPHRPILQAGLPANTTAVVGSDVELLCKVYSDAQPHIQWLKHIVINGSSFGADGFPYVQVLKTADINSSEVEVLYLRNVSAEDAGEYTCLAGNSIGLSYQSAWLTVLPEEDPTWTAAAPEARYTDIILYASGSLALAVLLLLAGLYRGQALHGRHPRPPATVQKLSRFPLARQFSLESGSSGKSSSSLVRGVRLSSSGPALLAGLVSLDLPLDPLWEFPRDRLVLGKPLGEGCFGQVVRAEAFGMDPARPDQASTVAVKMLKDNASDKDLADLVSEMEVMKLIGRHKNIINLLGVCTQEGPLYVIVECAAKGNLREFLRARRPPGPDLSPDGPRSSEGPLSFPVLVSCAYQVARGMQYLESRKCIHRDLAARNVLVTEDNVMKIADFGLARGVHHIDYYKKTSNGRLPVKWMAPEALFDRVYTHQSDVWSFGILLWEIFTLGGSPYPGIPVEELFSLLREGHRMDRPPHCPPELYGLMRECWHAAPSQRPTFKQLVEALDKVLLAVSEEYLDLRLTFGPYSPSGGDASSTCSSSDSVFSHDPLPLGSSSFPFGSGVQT

Consider `C=CC(=O)Nc1cccc(C)c1Nc1ncc(OC(C)c2c(Cl)c(OC)cc(OC)c2Cl)cn1` (configuration not stated), for which the IC50 in series [1] and in series [2] was over 10 µM in each case.
Regarding `C=C(C)C(=O)Nc1cc(N2CCN(CC)CC2)cc(C)c1Nc1ncc(OCc2c(F)c(OC)cc(OC)c2F)cn1`, the IC50 in series [2] worked out at 4.8 µM. In series [3], the remaining at 2 h, 2 µM is 0.4%.
As for `C=CC(=O)Nc1cccc(C)c1Nc1ncc(OCc2c(Cl)c(OC)cc(OC)c2Cl)cn1`, in series [3], the remaining at 2 h, 2 µM turned out to be 0.2%.
`C=CC(=O)N[C@H]1CCOC[C@H]1Nc1ncc(OCc2c(F)c(OC)cc(OC)c2F)cn1`: the IC50 in series [2] is over 10 µM. Besides, the figures for the remaining at 2 h, 2 µM in series [4] and in series [3] were 90% and 100%, respectively. In addition, the results for the CLint scaled at 1 µM in series [5] and in series [6] were 46 mL/min/kg and 564 mL/min/kg, respectively.
As for `C=CC(=O)Nc1cc(N2CCN(C(C)=O)CC2)cc(C)c1Nc1ncc(OCc2c(F)c(OC)cc(OC)c2F)cn1`, in series [2], the IC50 is 9.5 µM. In series [3], the remaining at 2 h, 2 µM came out at 0.3%. The values for the CLint scaled at 1 µM in series [5] and in series [6] were 265 mL/min/kg and 220 mL/min/kg, respectively.
As to `C=CC(=O)N[C@H]1CCCC[C@H]1Nc1ncc(OCc2c(F)c(OC)cc(OC)c2F)cn1` (racemic), the IC50 in series [2] was 3.3 µM. Further, the remaining at 2 h, 2 µM in series [4] and in series [3] was 96% throughout. Besides, the CLint scaled at 1 µM worked out at 154 mL/min/kg in series [5] and 2030 mL/min/kg in series [6].
Turning to `C=CC(=O)N[C@@H]1COC[C@@H]1Nc1ncc(OCc2c(F)c(OC)cc(OC)c2F)cn1`, the IC50 is 3.5 µM in series [1] and 7.4 µM in series [2].
For the molecule `C=CC(=O)Nc1cccc(C)c1Nc1ncc(OCc2cc(OC)cc(OC)c2)cn1`, the IC50 in series [2] was over 10 µM.
`C=CC(=O)Nc1cc(N2CCN(CC)CC2)cc(C)c1Nc1ncc(OCc2c(F)c(OC)cc(OC)c2F)cn1`: the IC50 in series [2] came out at 2.9 µM. In addition, in series [3], the remaining at 2 h, 2 µM was 0.1%. Also, the CLint scaled at 1 µM in series [5] was 120 mL/min/kg; in series [6], 180 mL/min/kg.
As for `C=CC(=O)Nc1ccccc1Nc1ncc(OCc2c(F)c(OC)cc(OC)c2F)cn1`, the IC50 in series [2] was found to be 0.06 µM.
